We go through 1 molecule from ChEMBL document CHEMBL6078631, “Covalent inhibitors meet epigenetics: New opportunities” (Eur J Med Chem, 2024).

This assay has as its target RNA cytosine C(5)-methyltransferase NSUN2 (Homo sapiens) (UniProt Q08J23). The assay can be described thus: Binding affinity to human NSUN2 assessed as ratio of kinact/Ki.

Chain of RNA cytosine C(5)-methyltransferase NSUN2 (Homo sapiens) (Q08J23 whole entry): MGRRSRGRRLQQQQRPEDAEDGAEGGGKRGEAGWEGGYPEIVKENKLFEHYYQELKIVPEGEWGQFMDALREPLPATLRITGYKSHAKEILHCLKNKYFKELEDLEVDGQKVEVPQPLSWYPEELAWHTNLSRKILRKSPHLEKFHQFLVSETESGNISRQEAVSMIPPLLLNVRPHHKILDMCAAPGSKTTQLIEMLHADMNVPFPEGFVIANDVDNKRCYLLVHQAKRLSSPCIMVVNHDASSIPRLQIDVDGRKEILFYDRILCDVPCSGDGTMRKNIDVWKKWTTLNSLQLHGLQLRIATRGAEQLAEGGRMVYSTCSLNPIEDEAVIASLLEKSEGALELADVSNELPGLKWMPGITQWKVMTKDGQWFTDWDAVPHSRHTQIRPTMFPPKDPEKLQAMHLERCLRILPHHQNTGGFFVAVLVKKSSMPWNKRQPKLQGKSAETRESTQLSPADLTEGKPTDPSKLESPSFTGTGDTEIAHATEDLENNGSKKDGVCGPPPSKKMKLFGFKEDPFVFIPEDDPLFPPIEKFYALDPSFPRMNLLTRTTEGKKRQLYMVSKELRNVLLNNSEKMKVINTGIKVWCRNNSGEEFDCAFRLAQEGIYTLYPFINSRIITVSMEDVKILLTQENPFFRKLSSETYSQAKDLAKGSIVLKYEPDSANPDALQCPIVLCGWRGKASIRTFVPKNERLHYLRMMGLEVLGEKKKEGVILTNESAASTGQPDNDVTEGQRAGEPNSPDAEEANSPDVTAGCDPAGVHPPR

`C=CC(=O)N1C[C@H](c2ccc(Br)cc2)[C@@H]1C(=O)Nc1cccc2cccnc12`: the kinact/Ki came out at 67 M⁻¹ s⁻¹.
